Measured values reported in patent US20130053277A1 (priority 2010, published 2013).

What was measured:
[1] = target: M2 H+ channel, Singapore wild-type (Influenza A virus, UniProt P10920); type: cell-based, Influenza A (Singapore H2N2 isolate)
[2] = target: influenza A virus M2 proton-selective ion channel, wild-type (Influenza A virus, UniProt P0DOF5); conditions: cited from earlier work
Chain of influenza A virus M2 proton-selective ion channel, wild-type (P0DOF5 whole entry, looked up): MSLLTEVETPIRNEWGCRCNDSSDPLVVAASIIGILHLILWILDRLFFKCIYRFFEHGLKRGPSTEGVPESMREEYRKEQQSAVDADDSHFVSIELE

Chain of M2 H+ channel, Singapore wild-type (P10920 whole entry, looked up): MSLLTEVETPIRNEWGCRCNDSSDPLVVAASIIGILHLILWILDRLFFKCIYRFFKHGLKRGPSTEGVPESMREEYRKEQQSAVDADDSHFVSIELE

Row | Structure (SMILES) | Ks (Monod coefficient, inhibitory constant) [1] | relief of growth inhibition by the channel from the Singapore strain [1] | isochronic apparent inhibitory binding constant [2] | Ks (dynamic range statement) [1] | activity (growth retardation relief, O.D.600) compared between the two drugs [1] | relief of growth retardation of bacteria expressing the M2 channel [1]
1 | NC12CC3CC(CC(C3)C1)C2 [amantadine, Amantadine] | 140 nM | substantially relieved | 16 µM |  |  | 
2 | CC(N)C12CC3CC(CC(C3)C1)C2 (centres unmarked) [rimantadine, Rimantadine] | 15 nM | substantially relieved |  | 15 nm | more pronounced than amantadine | significantly alleviate
